Results reported in the CheMixHub drug solubility set.

Assay: xn = mol fraction of the nth substance listed, in the solute-free solvent

CC(C)=CCCC(C)C1CCC2(C)C3=C(CCC12C)C1(C)CCC(O)C(C)(C)C1CC3 (configuration not stated) + CO + O
solubility (g/100 g solution)
Conditions | 296.67 K | 306.81 K | 316.94 K | 328.97 K | 338.78 K
x2 = 0.0229 | 8.14e-06 | 1.37e-05 | 3.09e-05 | 6.98e-05 | 0.000153
x2 = 0.09675 | 8.15e-06 | 1.39e-05 | 3.32e-05 | 8.15e-05 | 0.000161
x2 = 0.3065 | 7.26e-06 | 1.51e-05 | 3.94e-05 | 8.99e-05 | 0.000193
x2 = 0.5109 | 0.00011 | 0.000197 | 0.000378 | 0.000796 | 0.00195
x2 = 0.8048 | 0.0189 | 0.0422 | 0.0785 | 0.161 | –

Cl.N=C(N)N + COCCO + CCCO
solubility (g/100 g solution)
Conditions | 278.15 K | 283.15 K | 288.15 K | 293.15 K | 298.15 K | 303.15 K | 308.15 K | 313.15 K | 318.15 K | 323.15 K
x2 = 0.08075 | 10.4 | 11.1 | 12.4 | 13.1 | 14.6 | 15.7 | 16.7 | 17.6 | 19.2 | 20.2
x2 = 0.253 | 17.4 | 18.7 | 20.1 | 20.9 | 21.8 | 23.2 | 24.1 | 24.9 | 25.7 | 26.9
x2 = 0.4413 | 23.9 | 24.8 | 25.9 | 26.6 | 27.7 | 28.3 | 29.1 | 30 | 30.9 | 31.4
x2 = 0.6479 | 29.4 | 30.1 | 30.7 | 31.8 | 32.2 | 33.2 | 33.8 | 34.3 | 35 | 35.6
x2 = 0.8768 | 32.5 | 33.2 | 34.3 | 34.9 | 35.8 | 36.6 | 37.1 | 38.3 | 38.9 | 39.5

Nc1ccc(Oc2ccc(N)cc2)cc1 + COCCO + CCO
solubility (g/100 g solution)
Conditions | 293.15 K | 298.15 K | 303.15 K | 308.15 K | 313.15 K | 318.15 K | 323.15 K | 328.15 K | 333.15 K
x2 = 0.06303 | 0.499 | 0.623 | 0.747 | 0.912 | 1.12 | 1.28 | 1.53 | 1.85 | 2.05
x2 = 0.1315 | 0.717 | 0.756 | 1.15 | 1.31 | 1.47 | 1.66 | 2.05 | 2.13 | 2.67
x2 = 0.206 | 1.06 | 1.1 | 1.51 | 1.67 | 1.81 | 2.26 | 2.59 | 2.89 | 3.33
x2 = 0.2875 | 1.41 | 1.52 | 2.06 | 2.16 | 2.37 | 2.9 | 3.32 | 3.5 | 4.01
x2 = 0.3771 | 1.82 | 2.06 | 2.54 | 2.67 | 3.1 | 3.47 | 4.03 | 4.26 | 4.95
x2 = 0.4759 | 2.25 | 2.54 | 3.08 | 3.31 | 3.71 | 4.25 | 4.81 | 4.96 | 5.85
x2 = 0.5855 | 2.84 | 3.2 | 3.71 | 4.1 | 4.42 | 5.1 | 5.68 | 6.03 | 6.84
x2 = 0.7077 | 3.66 | 3.97 | 4.45 | 4.86 | 5.25 | 6.05 | 6.65 | 7.22 | 7.97
x2 = 0.8449 | 4.52 | 4.75 | 5.33 | 5.75 | 6.21 | 6.99 | 7.7 | 8.23 | 9.05

Nc1[nH]c(=O)ncc1F + CS(C)=O + CC(C)O
solubility (g/100 g solution)
Conditions | 283.15 K | 288.15 K | 293.15 K | 298.15 K | 303.15 K | 308.15 K | 313.15 K | 318.15 K | 323.15 K
x2 = 0.0788 | 0.0921 | 0.111 | 0.133 | 0.162 | 0.192 | 0.228 | 0.268 | 0.315 | 0.37
x2 = 0.1614 | 0.168 | 0.202 | 0.237 | 0.282 | 0.331 | 0.386 | 0.451 | 0.526 | 0.615
x2 = 0.2481 | 0.248 | 0.291 | 0.341 | 0.401 | 0.466 | 0.543 | 0.625 | 0.717 | 0.826
x2 = 0.3392 | 0.336 | 0.388 | 0.451 | 0.521 | 0.606 | 0.693 | 0.798 | 0.914 | 1.05
x2 = 0.435 | 0.424 | 0.487 | 0.569 | 0.648 | 0.743 | 0.852 | 0.967 | 1.1 | 1.25
x2 = 0.5359 | 0.503 | 0.57 | 0.645 | 0.734 | 0.837 | 0.957 | 1.09 | 1.24 | 1.41
x2 = 0.6424 | 0.591 | 0.662 | 0.745 | 0.833 | 0.948 | 1.08 | 1.21 | 1.38 | 1.55
x2 = 0.7549 | 0.704 | 0.789 | 0.876 | 0.987 | 1.11 | 1.25 | 1.41 | 1.59 | 1.77
x2 = 0.8739 | 0.823 | 0.901 | 1 | 1.11 | 1.24 | 1.4 | 1.57 | 1.75 | 1.95

Nc1ccc(Oc2ccc(N)cc2)cc1 + CS(C)=O + CCO
solubility (g/100 g solution)
Conditions | 293.15 K | 298.15 K | 303.15 K | 308.15 K | 313.15 K | 318.15 K | 323.15 K | 328.15 K | 333.15 K
x2 = 0.06154 | 0.705 | 0.952 | 1.2 | 1.28 | 1.56 | 1.81 | 2.13 | 2.45 | 2.97
x2 = 0.1286 | 1.54 | 1.73 | 2.16 | 2.39 | 2.54 | 3.27 | 3.57 | 4.14 | 4.81
x2 = 0.2019 | 2.84 | 3.16 | 3.74 | 4.14 | 4.64 | 5.35 | 5.87 | 6.46 | 7.63
x2 = 0.2824 | 5.08 | 5.51 | 6.34 | 6.77 | 7.36 | 8.3 | 9.1 | 10.2 | 11.8
x2 = 0.3711 | 8.32 | 8.84 | 9.8 | 10.4 | 11.4 | 12.3 | 13.3 | 14.7 | 16.3
x2 = 0.4696 | 12.3 | 13.1 | 14.1 | 15 | 16 | 17.2 | 18.2 | 19.7 | 21.4
x2 = 0.5793 | 17 | 18.3 | 19.1 | 20.1 | 21 | 22.4 | 23.4 | 24.9 | 26.6
x2 = 0.7024 | 22 | 23.1 | 24 | 24.9 | 25.9 | 26.9 | 28.1 | 29.7 | 31.3
x2 = 0.8416 | 26.8 | 27.7 | 28.6 | 29.6 | 30.2 | 31.6 | 32.7 | 34.1 | 35.7

CN1CCN(C2=Nc3cc(Cl)ccc3Nc3ccccc32)CC1 + CS(C)=O + O
solubility (g/100 g solution)
Conditions | 293.15 K | 298.15 K | 303.15 K | 308.15 K | 313.15 K | 318.15 K | 323.15 K | 328.15 K | 333.15 K
x2 = 0.02501 | 0.0367 | 0.0478 | 0.0615 | 0.0795 | 0.0996 | 0.126 | 0.159 | 0.2 | 0.249
x2 = 0.05457 | 0.375 | 0.473 | 0.591 | 0.724 | 0.873 | 1.06 | 1.28 | 1.54 | 1.84
x2 = 0.09003 | 1.33 | 1.64 | 1.96 | 2.36 | 2.78 | 3.26 | 3.88 | 4.56 | 5.3
x2 = 0.1334 | 3.26 | 3.82 | 4.52 | 5.18 | 6.01 | 6.93 | 8.01 | 9.03 | 10.2
x2 = 0.1876 | 5.71 | 6.6 | 7.64 | 8.74 | 9.88 | 11.3 | 12.7 | 14.2 | 15.7
x2 = 0.2572 | 9.16 | 10.5 | 12.1 | 13.6 | 15.4 | 17.2 | 19.1 | 21.3 | 23.4
x2 = 0.3501 | 12.9 | 14.6 | 16.6 | 18.6 | 20.7 | 23.1 | 25.5 | 27.9 | 30.5
x2 = 0.4801 | 16.2 | 18.2 | 20.4 | 22.7 | 25.2 | 27.9 | 30.6 | 33.4 | 36.3
x2 = 0.6751 | 18.4 | 20.7 | 23.2 | 25.8 | 28.6 | 31.3 | 34.3 | 37.4 | 40.4

O=c1ccc(-c2ccccc2)n[nH]1 + CS(C)=O + O
solubility (g/100 g solution)
Conditions | x2 = 0.02501 | x2 = 0.05457 | x2 = 0.09003 | x2 = 0.1334 | x2 = 0.1876 | x2 = 0.2572 | x2 = 0.3501 | x2 = 0.4801 | x2 = 0.6751
298.15 K | 0.016 | 0.0442 | 0.124 | 0.333 | 0.899 | 2.36 | 6.21 | 14.3 | 30.9
303.15 K | 0.0188 | 0.051 | 0.14 | 0.376 | 1.01 | 2.59 | 6.53 | 15.1 | 32.4
308.15 K | 0.0223 | 0.0609 | 0.166 | 0.428 | 1.12 | 2.85 | 7.05 | 16.1 | 33.6
313.15 K | 0.0267 | 0.0709 | 0.188 | 0.487 | 1.26 | 3.14 | 7.63 | 17.1 | 35.2
318.15 K | 0.0334 | 0.0872 | 0.224 | 0.571 | 1.45 | 3.54 | 8.41 | 18.3 | 36.8

CN1CCN(C2=Nc3cc(Cl)ccc3Nc3ccccc32)CC1 + Cc1ccccc1 + CC(C)=O
323.15 K
Conditions | solubility (g/100 g solution)
x2 = 0.06574 | 13.6
x2 = 0.1358 | 15.9
x2 = 0.2124 | 17.4
x2 = 0.2962 | 17
x2 = 0.3864 | 17
x2 = 0.4859 | 16
x2 = 0.5953 | 14.7
x2 = 0.7159 | 12.9
x2 = 0.8497 | 10.3

CCC(C)n1ncn(-c2ccc(N3CCN(c4ccc(OCC5COC(Cn6cncn6)(c6ccc(Cl)cc6Cl)O5)cc4)CC3)cc2)c1=O (configuration not stated) + ClC(Cl)Cl + CCCCO
solubility (g/100 g solution)
Conditions | x2 = 0.06524 | x2 = 0.1357 | x2 = 0.2121 | x2 = 0.2952 | x2 = 0.3858 | x2 = 0.4851 | x2 = 0.5945 | x2 = 0.7153 | x2 = 0.8497
288.15 K | 0.0548 | 0.12 | 0.336 | 0.987 | 3.22 | 7.01 | 12 | 17.9 | 23.9
293.15 K | 0.0651 | 0.142 | 0.387 | 1.18 | 3.56 | 7.85 | 13.2 | 18.9 | 24.8
298.15 K | 0.0777 | 0.171 | 0.445 | 1.39 | 3.92 | 8.74 | 14.3 | 20.1 | 25.6
303.15 K | 0.0924 | 0.202 | 0.509 | 1.65 | 4.3 | 9.68 | 15.4 | 21.3 | 26.5
308.15 K | 0.109 | 0.237 | 0.583 | 1.93 | 4.71 | 10.7 | 16.6 | 22.4 | 27.4
